# Source: US20040071687A1, “Adult stem cell recruitment” (priority 2002, published 2004)
# How the values were obtained:
# [1] = system: MMP-9−/− and MMP-9+/+ mice; test: 5-FU myelosuppression: survival and hematopoietic recovery
# Protocol: Administration of 5-FU. MMP-9^−/− and MMP-9^+/+ mice were injected with the cell cycle cytotoxic agent 5-fluorouracil (5-FU) to deplete cycling hematopoietic cells. In particular, 250 mg/kg body weight 5-FU (Pharmacia & Upjohn Company) was administered intravenously (i.v.). At specified time points, mice were sacrificed. Femurs were flushed and bone marrow cells were used for cell cycle analysis or subjected to magnetic bead isolation (MACS) (Miltenyi Biotec). Lineage-negative bone marrow cells were isolated by MACS after labeling the cells with a depletion cocktail of lineage-specific monoclonal antibodies (mAbs), including CD5, CD45R, CD11b, Gr-1, TER119, 7/4 (Stem Cell Technology, Canada). Lin^− cells were MACS isolated with mAb against Sca-1. […] For cell cycle analysis whole bone marrow cells of MMP-9^−/− and MMP-9^+/+ mice were labeled with Sca-1-FITC. Lin^−Sca-1^+bone marrow cells were labeled with c-Kit-FITC. Labeled bone marrow cells and Lin^−Sca-1^+cells were fixed in ice-cold ethanol for 30 min. After RNAase treatment (Sigma, MO), cells were stained with propidium iodide (Molecular-Probes, Oregon). The DNA content of Sca-1 and Lin^−Sca-1^+c-Kit^+ cells was determined by FACS (Coulter flow cytometer). […]
# Peripheral blood analysis. Blood was collected with capillary pipettes by retro-orbital bleeding and WBC counts were determined by using a hemocytometer. […]
# [2] = system: Sca-1+ bone marrow cells; test: Cell cycle analysis of bone marrow Sca-1+ cells after 5-FU; format: in vivo, mice
# Protocol: Administration of 5-FU. MMP-9^−/− and MMP-9^+/+ mice were injected with the cell cycle cytotoxic agent 5-fluorouracil (5-FU) to deplete cycling hematopoietic cells. In particular, 250 mg/kg body weight 5-FU (Pharmacia & Upjohn Company) was administered intravenously (i.v.). At specified time points, mice were sacrificed. Femurs were flushed and bone marrow cells were used for cell cycle analysis or subjected to magnetic bead isolation (MACS) (Miltenyi Biotec). Lineage-negative bone marrow cells were isolated by MACS after labeling the cells with a depletion cocktail of lineage-specific monoclonal antibodies (mAbs), including CD5, CD45R, CD11b, Gr-1, TER119, 7/4 (Stem Cell Technology, Canada). Lin^− cells were MACS isolated with mAb against Sca-1. […] For cell cycle analysis whole bone marrow cells of MMP-9^−/− and MMP-9^+/+ mice were labeled with Sca-1-FITC. Lin^−Sca-1^+bone marrow cells were labeled with c-Kit-FITC. Labeled bone marrow cells and Lin^−Sca-1^+cells were fixed in ice-cold ethanol for 30 min. After RNAase treatment (Sigma, MO), cells were stained with propidium iodide (Molecular-Probes, Oregon). The DNA content of Sca-1 and Lin^−Sca-1^+c-Kit^+ cells was determined by FACS (Coulter flow cytometer).
# [3] = system: MS-5 murine stromal cells; test: Release of sKitL from stromal cell line cultures; format: cell-based; settings: MS-5 cells, serum-free medium, 24 hours
# Protocol: Stromal cell line cultures. […] Immunoassay for chemokines and cytokines. Plasma levels of SDF-1, VEGF, and sKitL were measured using commercially available ELISA (R&D Systems).
# [4] = system: lethally irradiated syngeneic mice; test: Bone marrow repopulating assay with mobilized PBMCs; format: in vivo; settings: for long-term engraftment of lethally irradiated syngeneic mice transplanted with mobilized PBMCs: PBMCs from SCID mice given AdSDF-1, AdVEGF or G-CSF, no MPI, n=12
# Protocol: Bone marrow repopulating assay. Chemo/cytokine-mobilized PBMCs from SCID mice treated with/without MPI were collected on day 7. PBMCs from G-CSF-treated MMP-9^−/− and MMP-9^+/+ mice were collected on day 5. Mobilized PBMCs (10^5) were injected into lethally irradiated syngeneic animals (9.5 Gy). Survival was monitored.
# [5] = system: lethally irradiated syngeneic recipients; test: CFU-S assay; format: in vivo; settings: chemokine/cytokine-treated SCID mice given metalloproteinase inhibitor
# Protocol: CFU-S assay. Mobilized peripheral blood mononuclear cells (10^5/mouse) of chemokine-treated SCID mice were injected i.v. into lethally irradiated syngeneic recipients (9 Gy). Spleens were removed 12 days later and fixed in Bouin's solution. The number of macroscopic spleen colonies was scored.
# [6] = system: white blood cells and hematopoietic progenitors (CFU-Cs); test: Mobilization of white blood cells and progenitors (peripheral blood analysis, CFU-C); format: in vivo, mice; settings: for mobilization of mature white blood cells and hematopoietic progenitors (CFU-Cs): plasma elevation in MMP-9+/+ mice, but not in MMP-9−/− mice
# Protocol: (§1) Mobilization of bone marrow-derived cells by adenovirus delivered factors. […] The vector was injected i.v. as a single dose. Recombinant G-CSF (R&D Systems, MN) was administered subcutaneously daily from day 0-5 at 50 μg/kg body weight. Recombinant murine KitL (peproTech, NJ) was injected s.c. twice a day at 100 or 200 μg/kg body weight.
# Peripheral blood analysis. Blood was collected with capillary pipettes by retro-orbital bleeding and WBC counts were determined by using a hemocytometer. Peripheral blood mononuclear cells (PBMCs) were isolated from heparinized blood after centrifugation over a discontinuous gradient using Lympholyte-M (Cedarlane, Ontario, Canada).
# Progenitor assay. Peripheral blood mononuclear cells (10^5) were plated in Iscove's modified Dulbecco's medium (IMDM) containing 1.2% methylcellulose (Fisher Scientific, NJ), 30% FBS, 5×10^−3M 2-mercaptoethanol 2 mM L-glutamine, 0.5 mM hemin (Sigma), murine KitL (20 ng/ml), human erythropoietin (6U/ml) and murine IL-3 (50 ng/ml). Colonies (>50 cells) were scored after 7 days (37° C., 5% CO2).
# [7] = system: human CD34+ cells; test: In vitro transmigration through reconstituted basement membranes (Matrigel transwell); format: cell-based; settings: for migration of CD34+ cells: Matrigel-coated transwell, SDF-1 100 ng/ml in lower chamber, inhibitor in both chambers (CGS 27023A 1 nM; 5-phenyl-1,10-phenanthroline 1 mM)
# Protocol: Substrate zymography. Supernatants from human MACS-isolated CD34^+ (5×10^3) cells were collected after overnight incubation in serum-free medium with/without SDF-1 (150 ng/ml R&D-Systems) or VEGF (50 ng/ml, PeproTech). MMP activity was determined by gelatin zymography (Lane et al., 2000).
# In vitro transmigration through reconstituted basement membranes. […] CD34^+ cells were added to 8 μm pore Matrigel-coated (BD) transwell inserts (Costar, Cambridge Mass.). […] Transmigrated cells were quantified, placed in a clonogenic assay and in long-term cultures to measure the number of CAFC and LTC-IC (Jo et al., 2000).
# [8] = system: MMP-9; test: Immunohistochemistry for MMP-9 in bone marrow sections; format: in vivo; settings: wild type mice; SDF-1 and VEGF by adenoviral vector, G-CSF recombinant
# Protocol: Immunohistochemistry. Bone marrow sections were deparaffinized, rehydrated through an alcohol series immersed in 0.1% H2O2 and blocked using an Avidin and Biotin blocking kit (Vector, Burlingame, Calif.). For MMP-9 staining, the M.O.M. immunodetection kit (Vector) was used as recommended. Sections were incubated with MMP-9 mAb (clone 7-11C, Oncogene, MA) for 30 min, washed in PBS, incubated with a biotinylated horse anti-mouse IgG and incubated for 5 min with A&B reagents (Vector). Von Willebrand Factor (vWF) immunohistochemistry was performed on deparaffinized sections, treated with 3% H2O2, incubated with 0.05% Pronase E (Sigma). Sections were stained with anti-human vWF/HRP (Dako). Sections were developed with 3,3′-diaminobenzidine substrate and counterstained with eosin and hematoxylin.
# [9] = system: sKitL; test: Plasma sKitL by ELISA after adenoviral vector or cytokine treatment; format: in vivo; settings: MMP-9+/+ mice, five days after treatment
# Protocol: as §1
# Immunoassay for chemokines and cytokines. Plasma levels of SDF-1, VEGF, and sKitL were measured using commercially available ELISA (R&D Systems).
# [10] = system: circulating endothelial progenitors (CEPs); test: Endothelial progenitor assay (CFU-EC, VEGFR2+ cells); format: in vivo; settings: wild type mice, elevated plasma levels
# Protocol: Endothelial progenitor assay. Circulating bone marrow-derived CEPs were quantified by colony forming unit-endothelial cell (CFU-EC) as previously described (Hattori et al. 2001a). Mobilized PBMCs were cultured in M199 media (GIBCO-BRL, Gaithersburg, Md.) supplemented with 20% FBS (HyClone, UT), ECGF (30 μg/ml), human FGF-basic (Sigma) and heparin. After 5 weeks of culture, adherent cells were scored for colonies (>10 cells). Endothelial colonies were identified by metabolic uptake of DiI-Acetylated-LDL (1 μg/ml; PerImmune Inc, Rockville, Md.) at 37° C. for 5 hours, and visualized fluorescence microscopy. The number of VEGFR2^+ cells was quantified by FACS using a Cy2-labeled mAb to VEGFR2 (clone DC101, ImClone, NY), (Hattori et al. 2001a).
molecule,measurement,setting,value
"O=c1[nH]cc(F)c(=O)[nH]1 [5-FU, 5-fluorouracil]",survival of 5-FU-treated mice,"[1]; MMP-9+/+, mouse, in vivo, iv",all of the MMP-9^+/+ mice survived
same,death of 5-FU-treated mice,"[1]; MMP-9−/− mice, single i.v. dose, n=16",72%
same,total number of Sca-1+ cells in S-phase,"[2]; MMP-9+/+ mice, day 6 after 5-FU",2.2±0.05 ×10^5/femur
same,total number of Sca-1+ cells in S-phase,"[2]; MMP-9+/+ mice, day 10 after 5-FU",11.5±0.3 ×10^5/femur
same,total number of Sca-1+ cells in S-phase,"[2]; MMP-9−/− mice, day 6 after 5-FU",1.0±0.03 ×10^5/femur
same,total number of Sca-1+ cells in S-phase,"[2]; MMP-9−/− mice, day 10 after 5-FU",2.1±0.04 ×10^5/femur
COc1ccc(S(=O)(=O)N(Cc2cccnc2)[C@@H](C(=O)NO)C(C)C)cc1 [CGS 27023A],release of sKitL,[3],blocked
same,time within which all recipient mice died,[4]; recipients of PBMCs from MPI-treated mice,≤ 19 days
same,mobilization of hematopoietic cells with short-term repopulating potential (CFU-S),[5],completely blocked
same,white blood cell counts and chemokine-induced mobilization,[6]; MMP-9 competent mice (data not shown),decreased white blood cell counts and blocked chemokine-induced mobilization
same,migration of CD34+ cells,[7],completely blocked
VEGF,immunoreactive MMP-9 in bone marrow stromal and hematopoietic cells,[8],increased immunoreactive MMP-9
same,long-term engraftment of lethally irradiated syngeneic mice transplanted with mobilized PBMCs,[4],40%
same,plasma sKitL levels compared to untreated animals,[9],increased plasma sKitL levels
same,mobilization of mature white blood cells and hematopoietic progenitors (CFU-Cs),[6],mobilized mature white blood cells
same,release of pro-MMP-9 and migration of human CD34+ progenitor and stem cells,"[7]; transwell migration assay, chemoattractant",stimulate the release of pro-MMP-9 and induce migration
same,"mobilization of circulating endothelial progenitors (CFU-EC, VEGFR2)",[10],increased the mobilization of circulating endothelial progenitors
"c1ccc(-c2cc3cccnc3c3ncccc23)cc1 [5-phenyl-1,10-phenanthroline]",migration of CD34+ cells,[7],completely blocked
"G-CSF: recombinant granulocyte colony stimulating factor (R&D Systems), s.c. daily day 0-5 (protein, UniProt P09919 31-207, looked up) Granulocyte …: TPLGPASSLPQSFLLKCLEQVRKIQGDGAALQEKLVSECATYKLCHPEELVLLGHSLGIPWAPLSSCPSQALQLAGCLSQLHSGLFLYQGLLQALEGISPELGPTLDTLQLDVADFATTIWQQMEELGMAPALQPTQGAMPAFASAFQRRAGGVLVASHLQSFLEVSYRVLRHLAQP",immunoreactive MMP-9 in bone marrow stromal and hematopoietic cells,[8],increased immunoreactive MMP-9
same,survival of transplanted recipients,"[4]; MMP-9+/+ mice, PBMCs obtained day 5, n=8/group",100%
same,day by which all mice died,"[4]; MMP-9−/− mice treated with G-CSF, n=8/group",~18 days
same,long-term engraftment of lethally irradiated syngeneic mice transplanted with mobilized PBMCs,[4],80%
same,plasma sKitL levels compared to untreated animals,[9],increased plasma sKitL levels
same,mobilization of mature white blood cells and hematopoietic progenitors (CFU-Cs),[6],mobilized mature white blood cells
